Assay: xn = mol fraction of the nth substance listed
Conditions: 101 kPa, Liquid

CCC(C)=O [butanone] + CC(C)O
Conditions | mass density, 293.15 K [kg/m3] | mass density, 298.15 K [kg/m3] | mass density, 303.15 K [kg/m3] | mass density, 308.15 K [kg/m3] | mass density, 313.15 K [kg/m3] | viscosity, 293.15 K [mPa·s] | viscosity, 298.15 K [mPa·s] | viscosity, 303.15 K [mPa·s] | viscosity, 308.15 K [mPa·s] | viscosity, 313.15 K [mPa·s]
x1 = 0.0562 | 786.4 | 782.34 | 778.9 | 773.52 | 769.21 | – | – | – | – | –
x1 = 0.0595 | – | – | – | – | – | 1.816 | 1.596 | 1.413 | 1.272 | 1.165
x1 = 0.1136 | 787.47 | 783.31 | 779.85 | 774.58 | 770.17 | – | – | – | – | –
x1 = 0.1282 | – | – | – | – | – | 1.504 | 1.362 | 1.207 | 1.095 | 1.003
x1 = 0.1724 | 788.54 | 784.36 | 780.81 | 775.58 | 771.13 | 1.294 | 1.185 | 1.046 | 0.9637 | 0.8693
x1 = 0.2326 | 789.67 | 785.46 | 781.82 | 776.64 | 772.12 | 1.103 | 0.9992 | 0.9083 | 0.8366 | 0.774
x1 = 0.2941 | 790.83 | 786.59 | 782.85 | 777.7 | 773.13 | 0.9668 | 0.8812 | 0.8021 | 0.7488 | 0.6929
x1 = 0.3571 | 792.05 | 787.74 | 783.91 | 778.8 | 774.16 | – | – | – | – | –
x1 = 0.3572 | – | – | – | – | – | 0.852 | 0.7675 | 0.7154 | 0.6663 | 0.6169
x1 = 0.4217 | 793.29 | 788.95 | 785.01 | 779.92 | 775.21 | 0.7693 | 0.6949 | 0.6406 | 0.5987 | 0.5567
x1 = 0.4878 | 794.6 | 790.18 | 786.14 | 781.07 | 776.27 | 0.7113 | 0.6289 | 0.5816 | 0.5428 | 0.4753
x1 = 0.5555 | 795.96 | 791.44 | 787.29 | 782.24 | 777.37 | – | – | – | – | –
x1 = 0.5556 | – | – | – | – | – | 0.6609 | 0.5801 | 0.5303 | 0.4834 | 0.4406
x1 = 0.625 | 797.35 | 792.74 | 788.49 | 783.44 | 778.48 | 0.6072 | 0.5071 | 0.4848 | 0.4314 | 0.3846
x1 = 0.6962 | 798.79 | 794.08 | 789.7 | 784.66 | 779.61 | 0.5511 | 0.4516 | 0.4355 | 0.3751 | 0.3302
x1 = 0.7692 | 800.26 | 795.45 | 790.95 | 785.91 | 780.76 | – | – | – | – | –
x1 = 0.7693 | – | – | – | – | – | 0.5144 | 0.3852 | 0.3866 | 0.3345 | 0.316
x1 = 0.8442 | 801.6 | 796.86 | 792.21 | 787.18 | 781.93 | 0.4675 | 0.353 | 0.3359 | 0.306 | 0.286
x1 = 0.9211 | 803.3 | 798.3 | 793.51 | 788.48 | 783.12 | 0.4293 | 0.3262 | 0.2972 | 0.2758 | 0.2706
x1 = 1 | 804.92 | 799.7 | 794.81 | 789.78 | 784.32 | – | 0.2828 | 0.2666 | 0.2601 | 0.2545
